Where two headings read alike, the source gives them in different places.
Key:
T. brucei (BSF) = assay: Alamar Blue viability test, T. brucei bloodstream form; format: cell-based; details: Trypanosoma brucei
[1] = system: KB 3-1 cervix cancer cell line; details: read-out: cytotoxicity IC50; cited from earlier work

Structure (SMILES): CCCCCCC1CCCC(C2CCC([C@H]3CC[C@H]([C@H](O)CCCCCCCCCCCCC4=C[C@H](C)OC4=O)O3)O2)O1 (stereo partly drawn) [Compound 6, chamuvarinin]
- EC50 (T. brucei (BSF); read-out: T.brucei(BSF) EC50): 1.4 ± 0.1 µM
- EC50 (T. brucei (BSF); read-out: pEC50 (converted)): 1.38 µM
- IC50 [1]: 0.0008 µM
